Values quoted from earlier work, collected in patent publication US20120184504A1, “"The Use of a PAR-1 Antagonist in Combination with a P2Y12 ADP Receptor Antagonist for Inhibition of Thrombosis"” (priority 2009, published 2012).
Like-named read-outs stand apart in the source and are kept apart here.

Columns and labels:
[1] = test system: ischemic events and bleeding in patients; settings: two phase 2 trials; cited from earlier work
[2] = test system: CFRs (coronary thrombus formation); settings: pigs, cited from earlier work
[3] = test system: clinical events and bleeding in patients with acute coronary syndromes; settings: cited from earlier work

CCOC(=O)N[C@@H]1CC[C@@H]2[C@@H](C1)C[C@H]1C(=O)O[C@H](C)[C@H]1[C@H]2/C=C/c1ccc(-c2cccc(F)c2)cn1 [SCH 530348]
bleeding [1]: without an accompanying increase in bleeding
incidence of ischemic events [1]: strong trends towards reduced incidence of ischemic events

CC(=O)Oc1ccccc1C(=O)O [aspirin]
effect on CFRs ([2]; aspirin alone 7 mg/kg): reduced, but did not completely abolish

COC(=O)[C@H](c1ccccc1Cl)N1CCc2sccc2C1 [clopidogrel]
effect on CFRs ([2]; clopidogrel alone 5 mg/kg): reduced, but did not completely abolish

CC(=O)Oc1cc2c(s1)CCN(C(C(=O)C1CC1)c1ccccc1F)C2 (stereo not drawn) [prasugrel]
remaining prevalence of clinical events [3]: 10%
incremental reduction in clinical events ([3]; prasugrel versus clopidogrel): 19%
